Measurements published in patent publication US8129537B2, “Compounds as PDE IV and TNF inhibitors” (Rhone-Poulenc Rorer Limited, priority 1993, dated 2012).

| SMILES | melting point |
| --- | --- |
| COc1cnc(C(=O)Cc2c(Cl)cncc2Cl)cc1OC1CCCC1 [Compound FG, 1-(4-cyclopentyloxy-5-methoxypyridin-2-yl)-2-(3,5-dichloropyridin-4-yl)ethanone] | 132 °C |
| COc1ccc(C(=O)Nc2c(Cl)cc(NC(C)=O)cc2Cl)cc1OC1CCCC1 [BU, N-(4-acetylamino-2,6-dichlorophenyl)-3-cyclopentyloxy-4-methoxybenzamide] | 250 to 252 °C |
| COc1ncc(C(=O)Nc2c(F)cncc2F)cc1OC1CCCC1 [Compound CR, 5-cyclopentyloxy-N-(3,5-difluoropyrid-4-yl)-6-methoxynicotinamide] | 210 to 211 °C |
| COc1ncc(C(=O)Cc2c(Cl)cncc2Cl)cc1OC1CCCC1 [Compound CT, 1-(5-cyclopentyloxy-6-methoxypyridin-3-yl)-2-(3,5-dichloropyrid-4-yl)ethanone] | 118 to 119 °C |
| COc1ccc(C(=O)Nc2c(Cl)cc(CO)cc2Cl)cc1OC1CCCC1 [BW, N-(2,6-dichloro-4-hydroxymethylphenyl)-3-cyclopentyloxy-4-methoxybenzamide] | 174 to 176 °C |
| COc1ccc(C(=O)Nc2c(Cl)cncc2Cl)nc1OC1CCCC1 [Compound CS, 6-cyclopentyloxy-N-(3,5-dichloropyrid-4-yl)-5-methoxypyridine-2-carboxamide] | 164 to 166 °C |
| COc1cc(F)c(C(=O)Cc2c(Cl)cncc2Cl)cc1OC1CCCC1 [Compound CH, 2-(3,5-dichloropyrid-4-yl)-1-(3-cyclopentyloxy-6-fluoro-4-methoxyphenyl)ethanone] | 115 to 116.5 °C |
| COc1cc(F)c(C(=O)Nc2c(Cl)cncc2Cl)cc1OC1CCCC1 [A, N-(3,5-dichloropyrid-4-yl)-3-cyclopentyloxy-6-fluoro-4-methoxybenzamide] | 143 to 144 °C |
| CSc1ncc(C(=O)Cc2c(Cl)cncc2Cl)cc1OC(C)C [Compound CW, 2-(3,5-dichloro-4-pyridyl)-1-(5-isopropyloxy-6-methylthio-3-pyridyl)ethanone] | 124 to 125 °C |
| COc1c[n+]([O-])c(C(=O)Nc2c(Cl)cncc2Cl)cc1OCC1CC1 [FZ, N-(3,5-dichloropyridin-4-yl)-4-cyclopropylmethoxy-5-methoxy-1-oxidopyridinium-2-carboxamide] | 178 to 180 °C |
| Cc1ncc(C(=S)Nc2c(Cl)cncc2Cl)cc1OC(C)C [Compound CV, N-(3,5-dichloro-4-pyridyl)-5-isopropyloxy-6-methylthionicotinamide] | 167 to 168 °C |
| COc1ncc(C(=O)Nc2c(Cl)cncc2Cl)cc1OC1CCCC1 [Compound CO, 5-cyclopentyloxy-N-(3,5-dichloropyrid-4-yl)-6-methoxynicotinamide] | 182 to 183 °C |
| COc1cnc(C(=O)Nc2c(Cl)cncc2Cl)cc1OC1CCCC1 [DA, N-(3,5-dichloropyrid-4-yl)-4-cyclopentyloxy-5-methoxypyridine-2-carboxamide] | 129 to 130 °C |
| COc1ccc(C(=O)Nc2c(Cl)cc(C=O)cc2Cl)cc1OC1CCCC1 [BY, N-(2,6-dichloro-4-formylphenyl)-3-cyclopentyloxy-4-methoxy-benzamide] | 96 to 98 °C |
| COc1ccc(C(=O)Nc2c(Cl)cncc2Cl)cc1OC1C=CCC1 (racemic) [BI, (±)-N-(3,5-dichloropyrid-4-yl)-3-cyclopent-2-enyloxy-4-methoxybenzamide] | 177 to 178 °C |
| COc1ncc(C(=O)Nc2c(Cl)cccc2Cl)cc1OC1CCCC1 [Compound CP, N-(2,6-dichlorophenyl)-5-cyclopentyloxy-6-methoxynicotinamide] | 145 to 146 °C |
| O=C(Nc1c(Cl)cncc1Cl)c1cc(OC2CCCC2)c(OC(F)F)cn1 [Compound GO, N-(3,5-dichloropyridin-4-yl)-4-cyclopentyloxy-5-difluoromethoxypyridine-2-carboxamide] | 131 to 132 °C |
| COc1ccc(C(=O)C(=O)c2ccncc2)cc1OC1CCCC1 [Compound GK, 1-(3-cyclopentyloxy-4-methoxyphenyl)-2-(pyrid-4-yl)ethane-1,2-dione] | 117 to 119 °C |
| COc1ncc(C(=O)Nc2c(C)noc2C)cc1OC1CCCC1 [Compound CQ, 5-cyclopentyloxy-N-(3,5-dimethylisoxazol-4-yl)-6-methoxynicotinamide] | 139 to 140 °C |
| COc1ccc(C(=O)Nc2ccccc2S(C)(=O)=O)cc1OC1CCCC1 [BM, N-(2-methylsulfonylphenyl)-3-cyclopentyloxy-4-methoxybenzamide] | 119 to 121 °C |
| COc1ccc(C(=O)Nc2c(Cl)cc(N)cc2Cl)cc1OC1CCCC1 [BS, N-(2,6-dichloro-4-aminophenyl)-3-cyclopentyloxy-4-methoxybenzamide] | 170 to 172 °C |
| COc1ccc(C(=O)Nc2c(Cl)cncc2Cl)cc1OC1CC=CC1 [BK, N-(3,5-dichloropyrid-4-yl)-3-cyclopent-3-enyloxy-4-methoxybenzamide] | 193 to 195 °C |
| COc1ccc(/C=C/c2c(Cl)cccc2Cl)cc1OC1CCCC1 [Compound GF, trans-1-(3-cyclopentyloxy-4-methoxyphenyl)-2-(2,6-dichlorophenyl)ethene] | 47 to 49 °C |
| Cc1ncc(C(=S)Nc2c(Cl)cncc2Cl)cc1OC1CCCC1 [Compound CU, 5-cyclopentyloxy-N-(3,5-dichloro-4-pyridyl)-6-methylthionicotinamide] | 144 to 145 °C |
